Patent US8178497B2, “Method of treating HIV in drug resistant non plasma viral reservoirs with monomeric DAPTA” (Rapid Pharmaceuticals AG, priority 2007, dated 2012)
Read-outs that look alike come from different tables or passages of the source.

What was measured:
[1] = tested on: CCR5-using HIV-1 strain, 81A; assay: p24 antigen production in HIV-infected M/M (CCR5-using strain); format: cell-based
Protocol: (§1) Viral replication and production in HIV-infected M/M treated with DAPTA was assessed 14 and 21 days after infection for p24 antigen production.

[2] = tested on: CXCR4-using (X4) strains, HIV-1 IIIB; assay: p24 antigen production in HIV-infected M/M (CXCR4-using strain); format: cell-based; conditions: M/M infected by HIV-1 IIIB; data not shown
Protocol: as §1

HIV-1 = conditions: 18 hours postinfection, vs not-treated cells
Protocol: Eighteen hours postinfection, genomic DNA was extracted and two-fold dilution of cell equivalents (range 1×10^6-1.25×10^5) were amplified in an inverse/nested PCR specific for a conserved gag region of the viral genome. Semi-quantitative analyses of HIV-1 DNA in M/M were performed by comparison of DNA amplification products from infected cells, standardized by PCR for β-actin, to standards of amplified U1 DNA copies and cell numbers. The UN-SCAN IT-gel software (Silk Scientific Inc.) was used to determine band densities (FIG. 3A).

[3] = tested on: SK-N-SH cells exposed to R5 HIV-1 strain BaL; assay: apoptosis of differentiated SK-N-SH cells exposed to HIV-1 BaL, FACS; format: cell-based; conditions: for apoptosis, share of SK-N-SH cells: day 5, 60% with HIV-1BaL alone
Excerpt: Finally, we exposed differentiated SK-N-SH cells to the R5 HIV-1 strain BaL, in the presence or absence of monomeric DAPTA, and assessed neuronal apoptosis. […] To compare the anti-apoptotic effect of monomeric DAPTA with other CCR5-binding molecules, we also tested the CCR5 antagonist TAK-779.

[4] = aggregation of peptide in solution; format: physicochemical
Excerpt: These marginal clinical benefits were inexplicable in the context of the many successful in vitro studies and an explanation was sought. […] Therefore reduction to practice required that the non-obvious formation of multimers must be remedied for considerations of both patient safety and drug efficacy.

HIV [5] = conditions: frozen stored plasma samples; p=.037; cited from earlier work
HIV [6] = conditions: main endpoint of the small trial; cited from earlier work
HIV [7] = conditions: doses as high as 10^−7 M; cited from earlier work
CCR5 [8] = target: T1, CCR5 (Homo sapiens, UniProt P51681); assay: competition between CCR5-FITC antibody and DAPTA in M/M, flow cytometry; format: cell-based; set-up: endogenous in cells; host or cells: human primary monocyte/macrophages (M/M)
T1 sequence (P51681 whole entry): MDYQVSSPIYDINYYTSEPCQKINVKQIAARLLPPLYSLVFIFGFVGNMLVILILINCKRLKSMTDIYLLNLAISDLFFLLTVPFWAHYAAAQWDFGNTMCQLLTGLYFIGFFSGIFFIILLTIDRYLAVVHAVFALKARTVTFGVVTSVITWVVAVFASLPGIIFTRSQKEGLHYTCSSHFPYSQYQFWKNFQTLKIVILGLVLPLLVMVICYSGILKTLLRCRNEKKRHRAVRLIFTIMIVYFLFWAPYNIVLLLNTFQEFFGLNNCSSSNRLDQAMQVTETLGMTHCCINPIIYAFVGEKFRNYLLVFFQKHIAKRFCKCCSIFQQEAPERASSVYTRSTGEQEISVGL
Excerpt: To confirm that monomeric DAPTA binding is specific for CCR5, a competition experiment between CCR5-FITC antibody and DAPTA in M/M was done. […] Treatment with monomeric DAPTA reduced CCR % expression to 9% with 10^−12 M DAPTA, compared with 35% of mock-treated M/M (FIG. 2) (p≦0.001).

CCR5 [9] = target: T1, CCR5; assay: CCR5 expression on SK-N-SH neuronal cells, 2D7 mAb staining; format: cell-based; set-up: CCR5 expression in these differentiated cells is limited and further reduced in the presence of DAPTA; endogenous in cells; host or cells: SK-N-SH (differentiated with retinoic acid)
Excerpt: To assess CCR5 expression on surface of neuronal cell lines, SK-N-SH were stained with 2D7 mAb in presence or in absence of DAPTA (at different doses) and TAK-779. SK-N-SH line has the potential of differentiating to neural cells in the presence of retinoic acid, and it has been used as a model of primary neurons.

Row | inhibition of CCR5 expression (CCR5 [9]; 1.8×10^−6 M) | Compound | reduction of p24 gag antigen production of control M/M cultures ([1]; HIV-1 81A, doses as low as 10^−14 M, 14 and 21 days after infection) [%] | effective dose lower than described in earlier reports (enhanced in vitro potency) ([1]; monomeric formulation vs earlier reports) | effect on HIV-1 p24 antigen production [2] | decline of HIV-1 DNA per 2.5×10^5 cells (HIV-1; 10^−7 M) [%] | decline of HIV-1 DNA per 2.5×10^5 cells (HIV-1; 10^−9 M) [%] | apoptosis, share of SK-N-SH cells ([3]; 10^−3M) [%] | apoptosis, share of SK-N-SH cells ([3]; 10^−12M) [%] | aggregation in solution [4] | reduction in viral load (HIV [5]) [log 10] | plasma viral load (HIV [6]) | antiviral effects (Sodroski) (HIV [7]) | inhibition of CCR5-binding, maximum (CCR5 [8]; 10^−12 M) [%] | CCR5 expression (CCR5+ M/M) (CCR5 [8]; 10^−12 M, mock-treated 35%) [%] | CCR5+ positive M/M (CCR5 [8]; DAPTA treated M/M, mock-treated 35%) [%] | inhibition of CCR5-binding (CCR5 [8]; overall, several DAPTA doses) | inhibition of CCR5 expression (CCR5 [9]; 10^−12M, vs unexposed SK-N-SH) [%] | inhibition of CCR5 expression (CCR5 [9]; 10^−13M, vs unexposed SK-N-SH) [%] | inhibition of apoptosis ([3]; 1.8×10^−6 M, vs cells not treated) [%]
1 |  | Dala1-peptide T-amide [DAPTA] | ~80 | 100-100,000 fold | no effect | 64 | 70 | 28 | 26 | quickly formed aggreagates in solution | 0.54 | failing to reduce plasma viral load | failed to find antiviral effects | 73 | 9 | 20 | about 43% | 72 | 68.5 | 
2 | about 61% | Cc1ccc(-c2ccc3c(c2)C=C(C(=O)Nc2ccc(C[N+](C)(C)C4CCOCC4)cc2)CCC3)cc1.[Cl-] [TAK-779, reference compound] |  |  |  |  |  |  |  |  |  |  |  |  |  |  |  |  |  | 30
